Measured values as given in patent publication US20240294914A1, “COMPOSITIONS AND METHODS FOR TREATING HEPATITIS B VIRUS INFECTION” (priority 2021, published 2024).

Columns and labels:
[1] = system: Hepatitis B virus; experiment: HBV minicircle (HBVcircle) mouse model: serum HBsAg, HBeAg, HBV DNA after LNP injection; type: in vivo
Source text: Having established the efficacy of these base editing reagents in vitro, experiments were then undertaken to evaluate these same base editing reagents for antiviral efficacy in vivo using the HBV minicircle mouse model. […] After establishing HBV viral replication, hepatic delivery of the base editing reagents was achieved via systemic administration of lipid nanoparticles (LNPs) formulated with the following base editing reagents: CBE mRNA and HBV-targeting gRNAs (e.g., gRNA37 and gRNA40 (see Table 1)). The mice were administered a combination of base editors, where the combination was either gRNA37 and gRNA40 or gRNA37-HM and gRNA40-HM. The guides gRNA37-HM and gRNA40-HM each included heavily modified(HM) scafolds (see Table 1).
Table 23 below provides a summary of the experimental design used to evaluate the base editing reagents in vivo. The mice contained an HBVcircle polynucleotide that enabled HBV replication in vivo. See, for example Yan et al., J. Hepatol 2017 66:1149-1157 for a description of an exemplary mouse model. The mice were administered lipid nanoparticles (BL4 LNP) containing mRNA encoding BE4 (a cytidine base editor) and either the guide RNAs gRNA37 and gRNA40 or the guide RNAs gRNA37-HM and gRNA-40-HM containing a scaffold with heavy modifications (HM). […] HBsAg, HbeAg, and HBV DNA levels in serum were measured weekly (FIGS. 24A-24C and 25A-25C). […]

[2] = system: HBV cccDNA; experiment: cccDNA editing in HBV-infected HepG2-NTCP cells (NGS on enriched cccDNA); type: cell-based, Hepatitis B virus; settings: for improvement in base editing efficiency by lamivudine pretreatment: HepG2-NTCP, 3-day pretreatment (8-day total), BE4 mRNA + gRNAs 37 and 40
Source text: Experiments were completed using guide RNA's listed in Table 1 to identify combinations of guide RNA's effective in treating HBV-infected cells. HepG2-NTCP cells were transfected with mRNA encoding BE4 and a guide RNA(s) selected from gRNA12, gRNA37, gRNA19, gRNA190, and gRNA40. HepG2-NTCP cells are described in Sun, et al. “NTCP-Reconstituted In Vitro HBV Infection System,” Methods Mol. Biol. 1540:1-14 (2017), DOI: 10.1007/978-1-4939-6700-1_1, the disclosure of which is incorporated herein by reference in its entirety for all purposes. Cells were infected at day 0 with HBV and then transfected with the mRNA and gRNA(s) at day 4, see FIG. 6. Measurements of HBsAg, HBeAg, total HBV DNA, and 3.5 kb viral DNA were taken at day 14, see FIG. 6. The guide RNA, gRNA37, targeted HBsAg and gRNA40 targeted the HBV core protein, see FIG. 7. The use of gRNA37 was associated with a reduction in HBsAg levels and the use of gRNA40 was associated with a reduction in HBeAg levels, see FIG. 8. Also, each of gRNA37 and gRNA40 was associated with a lowering of total HBV DNA and 3.5 kb RNA levels.
(§1) Having identified gRNA37 and gRNA40 as effective gRNAs, the antiviral efficacy of a base editor system containing BE4, gRNA37 and gRNA40 (i.e., multiplexing gRNAs) was evaluated, FIGS. 8-10. It was determined that the base editor system multiplexed with the two gRNAs was associated with a reduction of HBV viral parameters in HepG2-NTCP cells, see FIG. 9. […] For the evaluation of editing of cccDNA, the cccDNA was enriched via Hirt extraction and ExoI/ExoIII nuclease treatment to remove rcDNA (relaxed circular DNA). Throughout the Examples provided herein, editing of cccDNA was evaluated using next generation sequencing completed using cccDNA enriched in this way.
HepG2-NTCP cells were infected with HBV at day 0, at day 4 an 8-day treatment with lamivudine commenced (which included a 3-day pretreatment period within the 8-day total), at day 7 cells were transfected with mRNA encoding BE4 and gRNAs 37 and 40, and measurements were taken at day 15. […]

[3] = system: HBV cccDNA; experiment: Base editing of HBV cccDNA in primary human hepatocytes (HBV-PHH); type: cell-based, Hepatitis B virus; settings: PHH, BE4 + gRNA37 + gRNA40
Source text: Base editor systems comparing guide RNAs evaluated in Example 1 were subsequently tested for anti-viral and editing efficacy using the Hepatitis B virus-primary human hepatocyte (HBV-PHH) system. Cells were transfected with the guide RNAs and mRNAs encoding the base editor as described in Example 1. […] Guide RNAs ABE-133, MSPbeam94, and ABE-85 were associated with a 70-80% reduction of HBV DNA as compared to controls. The guide RNAs PolyA-NGC1 and PolyA-NGC2 were associated with high editing followed by 90% efficacy in reduction of HbeAg.
as §1
The design of the experiments is described schematically in FIG. 14. Primary human hepatocyte (PHH) cells were infected with HBV at day 0. At days 4 and 11, the cells were transfected with mRNA encoding BE4 and with gRNA37 and gRNA40. Measurements of HBV DNA were taken over time, and measurements of HBsAg, HBeAG, HBV total DNA, 3.5 kb RNA, and cccDNA editing were taken at day 25. The experiments were carried out using a PHH co-culture system available from PhoenixBio. The PHH co-culture system maintained hepatocyte differentiation and metabolic activity for over 30 days. The HBV infection in the cells was persistent and a cccDNA level was maintained.
The design of the experiments is described schematically in FIG. 18. Primary human hepatocyte (PHH) cells were infected with HBV at day 0, at day 4 an 8-day. Treatment with lamivudine commenced (which included a 3-day pretreatment period within the 8-day total), and cells were transfected with mRNA encoding BE4 and the gRNAs gRNA37 and gRNA40 at days 7 and 14. HBV DNA levels were measured over time, and additional HBV markers were measured at day 21.
Primary hepatocytes (PHH) co-cultures infected with HBV were used to test antiviral efficacy of base editing systems. Primary hepatocyte co-culture (PHH) infected with HBV virus is a clinically relevant system for assessing anti-viral activity of base editing systems. The base editing reagents (mRNA encoding a base editor(s) and synthetic gRNA) were transfected via lipofection twice over the course of two weeks. The first transfection was performed about 3, 4, or 7 days after infection (days post infection (dpi)). Not being bound by theory, this 3-to-7-day period ensured that the cccDNA was completely formed at the time of the transfection. The second transfection was at about 7, 10, 11, or 14 days after infection. Extracellular parameters (e.g., HBsAg, HBeAg, and HBV DNA) were monitored over the course of the experiment (including the end of the experiment) and intracellular parameters (HBV DNA, viral RNA, and editing) were measured at the end of the experiment. Cells were lysed at the termination of the experiment (e.g., at 15, 17, 21, or 25 days).
Transfection details: RNA format, 800 ng total RNA per well in a 24 well plate (600 ng base editor-encoding mRNA+200 ng gRNA) transfected via lipofection (lipofectamin messengerMax, thermofisher Scientific) according to the vendor protocol.

[4] = system: Hepatitis B virus; experiment: Antiviral efficacy in HBV-infected primary human hepatocytes (HBV-PHH): HBsAg, HBeAg, HBV DNA, 3.5 kb RNA, rebound; type: cell-based; settings: PHH co-culture, transfection at days 4 and 11; lamivudine 8 days then discontinued
[5] = system: HBV-infected cells; experiment: Base editors with reduced off-target activity (BE4, ppApo, rrA3F): editing and HBsAg in HBV-infected cells; type: cell-based, Hepatitis B virus; settings: base editor in combination with gRNA37 and gRNA40
Source text: FIG. 22 provides a bar graph showing base editing at the sites targeted by gRNA37 and gRNA40. Cells were contacted with BE4, ppApo, or rrA3F in combination with gRNA37 and gRNA40.
Thus, all three base editor systems had antiviral activity. The negative control (HBV) was untreated cells and the control (contr) was gRNA targeting the PCSK9 gene.
It may be advantageous to use base editors that have reduced off-target activity and lower non-specific effects (e.g., as compared to BE4) without compromising editing efficiencies. Thus, experiments were undertaken to evaluate the antiviral efficacy of base editor systems containing ppApo or rrA3F, which are described in Yu, et al. “Cytoxine base editors with minimized unguided DNA and RNA off-target events and high on-target activity,” Nature Communications, 11:2052 (2020), DOI: 10.1038/s41467-020-15887-5, the disclosure of which is incorporated herein by reference in its entirety for all purposes.

[6] = system: naturally integrated HBV genome in PLC/PRF/5; experiment: Editing of naturally integrated HBV genome in PLC/PRF/5 cells; type: cell-based, Hepatitis B virus; settings: BE4 + gRNA
Source text: This editing reduced HBsAg secretion (FIG. 34B).

[7] = system: HBsAg; settings: PLC/PRF/5 cells, BE4 + gRNA, 6th day post-transfection

C=C1[C@H](CO)[C@@H](O)C[C@@H]1n1cnc2c(=O)[nH]c(N)nc21 [Entecavir]
HBV rebound (serum HBV DNA) ([1]; Entecavir 0.03 mg/kg orally for two weeks then discontinued, LNP 2 mg/kg): rebounds
reduction in serum levels of HBV DNA at day 21 ([1]; Entecavir orally daily days 1-14, base editing reagents day 1 or days 1 and 14): approximately 2 log

Nc1ccn([C@@H]2CS[C@H](CO)O2)c(=O)n1 [lamivudine, 2′,3′-dideoxy-3′-thiacytidine 4-Amino-1-[(2R,5S)-2-(hydroxymethyl)-1,3-oxathiolan-5-yl]-1,2-dihydropyrimidin-2-one]
improvement in base editing efficiency by lamivudine pretreatment [2]: about 20%
improvement in base editing efficiency by lamivudine pretreatment ([2]; listed as Lamivudine): 20%
functional editing by NGS on cccDNA enriched samples in the presence of 3TC ([2]; gRNA B+gRNA H with BE4): Higher editing efficiency
editing in primary hepatocytes with lamivudine pretreatment [3]: improved editing
HBV rebound (extracellular HBV DNA, qPCR in supernatant) [4]: rebounded

BE4: cytidine base editor polypeptide, SEQ ID NO: 10832, delivered as mRNA
HBsAg levels [5]: reductions
editing efficiencies at the sites targeted by gRNA37 and gRNA40 [5]: comparable editing efficiencies

MSPbeam37-PLC: guide RNA with spacer sequence SEQ ID NO. 10834, single nucleobase change relative to MSPbeam37 (guide GAAAGCCCAAGAUGAUGGGA; guide RNA scaffold, chemistry not fully specified)
editing of the naturally integrated HBV genome [6]: edited
extracellular HBsAg (secretion) [7]: reduced
